Laboratory results as given in patent publication US20260070945A1, “MACROCYCLIC IMMUNOMODULATORS” (Bristol-Myers Squibb Company, priority 2022, published 2026).
*1 amine or outer side, *2 acyl side, *3 side chain or, on linkers, in order; H or OH if unused. Where a SMILES comes first, the peptide text is derived from it. Bridges are numbered along the chain shown (N, C = ends). [ ]: non-standard residue; d: D form. The star is where a group is joined. ξ: configuration not given here. X5 = O=C([C@H](Cc1ccc(-c2cc(F)c(F)c(F)c2)cc1)N[*:1])[*:2]; Phe(3-CF3) = N[C@@H](Cc1cccc(C(F)(F)F)c1)C(=O)O; Phe(4-COOH) = N[C@@H](Cc1ccc(C(=O)O)cc1)C(=O)O; Bip = N[C@@H](Cc1ccc(-c2ccccc2)cc1)C(=O)O; Phe(3-Me) = Cc1cccc(C[C@H](N)C(=O)O)c1; γGlu = O=C(O)[C@H](CCC(=O)[*:2])N[*:1]; NH(CH2)12COOH = O=C(O)CCCCCCCCCCCCN*; Val(3-OH) = CC(C)(O)[C@H](N)C(=O)O; 4Pal = N[C@@H](Cc1ccncc1)C(=O)O; Cha = N[C@@H](CC1CCCCC1)C(=O)O; Cit = NC(=O)NCCC[C@H](N)C(=O)O; Ile(3ξ) = CCC(C)[C@H](N)C(=O)O; β3hS = N[C@@H](CO)CC(=O)O; Carboxymethyl = O=C(O)C*; NMeA = CN[C@@H](C)C(=O)O; Orn = NCCC[C@H](N)C(=O)O; Aun = NCCCCCCCCCCC(=O)O; Dab = NCC[C@H](N)C(=O)O; AEEA = NCCOCCOCC(=O)O

molecular target: T1, PD-1/PD-L1 interaction (PE-labeled human PD-L1-Ig binding to Jurkat cell line over-expressing human PD-1) (Homo sapiens, UniProt Q15116); assay: Jurkat-PD-1 Cell Binding High-Content Screening Assay (CBA); details: Jurkat-hPD-1 cells, PE-labeled PD-L1-Ig 20 nM final; read-out: Jurkat HPD1 PDL1 IC50
T1 construct: expressed in transfected cells; host or cells: Jurkat
T1 sequence (Q15116 25-288): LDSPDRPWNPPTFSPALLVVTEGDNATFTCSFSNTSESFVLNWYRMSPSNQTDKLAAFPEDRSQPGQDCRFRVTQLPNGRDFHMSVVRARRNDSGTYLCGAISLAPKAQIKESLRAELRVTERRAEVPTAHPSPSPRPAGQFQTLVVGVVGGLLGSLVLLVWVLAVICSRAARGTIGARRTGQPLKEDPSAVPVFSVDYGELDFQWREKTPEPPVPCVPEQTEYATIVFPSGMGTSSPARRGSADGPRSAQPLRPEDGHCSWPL
How it was run: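 High-content imaging read-out of PE-PD-L1-Ig binding (20 nM final, 1 h) to Jurkat-hPD-1 cells, after 2 h compound exposure at 37 °C in DMEM with 10% FCS. Nuclei counterstained with Hoechst 33342 after paraformaldehyde fixation.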

Row | Compound | IC50
1 | Cc1cccc(C[C@@H]2NC(=O)[C@H](CC(=O)O)NC(=O)[C@H](Cc3ccc(OCC(=O)O)cc3)NC(=O)[C@H]([C@@H](C)O)NC(=O)CSC[C@@H](C(=O)N[C@@H](CCN)C(=O)NCCOCCOCC(=O)NCCCCCCCCCCC(=O)O)NC(=O)[C@H](CO)NC(=O)[C@H](C(C)C)NC(=O)[C@H](CC3CCCCC3)NC(=O)[C@H](CCN)NC(=O)[C@@H](CC(C)C)NC(=O)[C@H](C)N(C)C(=O)[C@H](Cc3ccc(OCC(=O)O)cc3)NC(=O)[C@H](Cc3ccc(-c4ccccc4)cc3)NC(=O)[C@H](Cc3ccc(OCC(=O)O)cc3)NC2=O)c1 [Example 1368] ({CH2CO}-TY(Carboxymethyl)D[Phe(3-Me)]Y(Carboxymethyl)[Bip]Y(Carboxymethyl)[NMeA][dL][Dab][Cha]VSC[Dab][AEEA][Aun]-OH; thioether N-14) | 18.1 nM
2 | COC[C@@H]1NC(=O)CSC[C@@H](C(=O)N[C@@H](CCN)C(=O)NCCCCCCCCCCCCC(=O)O)NC(=O)[C@H](Cc2c[nH]cn2)NC(=O)[C@H](C(C)(C)O)NC(=O)[C@H](CC2CCCCC2)NC(=O)[C@H](CCN)NC(=O)[C@@H](CC(C)C)NC(=O)[C@H](C)N(C)C(=O)[C@H](CCCNC(N)=O)NC(=O)[C@H](Cc2ccc(-c3ccccc3)cc2)NC(=O)[C@H](Cc2ccc(C(=O)O)cc2)NC(=O)[C@H](Cc2cccc(C(F)(F)F)c2)NC(=O)[C@H](CC(=O)O)NC(=O)[C@H](Cc2ccc(OCC(=O)O)cc2)NC1=O [Example 1141] ({CH2CO}-S(Me)Y(Carboxymethyl)D[Phe(3-CF3)][Phe(4-COOH)][Bip][Cit][NMeA][dL][Dab][Cha][Val(3-OH)]HC[Dab]-{NH(CH2)12COOH}; thioether N-14) | 18.2 nM
3 | CC(C)C[C@@H]1NC(=O)[C@H](Cc2c[nH]c3ccccc23)NC(=O)[C@H](CC(=O)O)NC(=O)[C@H](Cc2ccc(C(=O)O)cc2)NC(=O)[C@H](Cc2ccc(OCC(=O)O)cc2)NC(=O)CSC[C@@H](C(=O)NCC(=O)N[C@@H](CCCN)C(=O)NCCCCCCCCCCC(=O)O)NC(=O)[C@H](CO)NC(=O)[C@H](C(C)C)NC(=O)[C@H](CC2CCCCC2)NC(=O)[C@H](CCN)NC(=O)[C@H](CC(C)C)NC(=O)[C@H](C)N(C)C(=O)[C@H](C(C)C)NC(=O)[C@H](Cc2ccc(-c3ccccc3)cc2)NC1=O [Example 1038] ({CH2CO}-Y(Carboxymethyl)[Phe(4-COOH)]DWL[Bip]V[NMeA]L[Dab][Cha]VSCG[Orn][Aun]-OH; thioether N-14) | 13.2 nM
4 | CC(C)C[C@H]1NC(=O)[C@H](C)N(C)C(=O)[C@H](Cc2ccc(O)cc2)NC(=O)[C@H](Cc2ccc(-c3ccccc3)cc2)NC(=O)[C@H](C(C)C)NC(=O)[C@H](Cc2c[nH]c3ccccc23)NC(=O)[C@H](CC(=O)O)NC(=O)[C@H](Cc2ccc(OCC(=O)O)cc2)NC(=O)[C@H](Cc2ccncc2)NC(=O)CSC[C@@H](C(=O)N[C@@H](CCN)C(=O)NCCCCCCCCCCC(=O)O)NC(=O)[C@H]([C@@H](C)O)NC(=O)[C@H](C(C)C)NC(=O)[C@H](CC2CCCCC2)NC(=O)[C@H](CCN)NC1=O [Example 1324] ({CH2CO}-[4Pal]Y(Carboxymethyl)DWV[Bip]Y[NMeA][dL][Dab][Cha]VTC[Dab][Aun]-OH; thioether N-14) | 34.2 nM
5 | COC[C@@H]1NC(=O)CSC[C@@H](C(=O)N[C@@H](CCN)C(=O)NCCCCCCCCCCCCC(=O)O)NC(=O)[C@H](CCC(=O)O)NC(=O)[C@H](C(C)C)NC(=O)[C@H](CC2CCCCC2)NC(=O)[C@H](CCN)NC(=O)[C@@H](CC(C)C)NC(=O)[C@H](C)N(C)C(=O)[C@H](CCC(N)=O)NC(=O)[C@H](Cc2ccc(-c3ccccc3)cc2)NC(=O)[C@H](Cc2ccc(C(=O)O)cc2)NC(=O)[C@H](Cc2cccc(C(F)(F)F)c2)NC(=O)[C@H](CC(=O)O)NC(=O)[C@H](Cc2ccc(OCC(=O)O)cc2)NC1=O [Example 1135] ({CH2CO}-S(Me)Y(Carboxymethyl)D[Phe(3-CF3)][Phe(4-COOH)][Bip]Q[NMeA][dL][Dab][Cha]VEC[Dab]-{NH(CH2)12COOH}; thioether N-14) | 12.5 nM
6 | Cc1cccc(C[C@@H]2NC(=O)[C@H](CC(=O)O)NC(=O)[C@H](Cc3ccc(OCC(=O)O)cc3)NC(=O)[C@H](CCCNC(=N)N)NC(=O)CSC[C@@H](C(=O)N[C@@H](CCN)C(=O)NCCCCCCCCCCC(=O)O)NC(=O)[C@@H](CO)NC(=O)[C@H](C(C)C)NC(=O)[C@H](CC3CCCCC3)NC(=O)[C@H](CCN)NC(=O)[C@@H](CC(C)C)NC(=O)[C@H](C)N(C)C(=O)[C@H](Cc3ccc(OCC(=O)O)cc3)NC(=O)[C@H](Cc3ccc(-c4ccccc4)cc3)NC(=O)[C@H](C(C)C)NC2=O)c1 [Example 1266] ({CH2CO}-RY(Carboxymethyl)D[Phe(3-Me)]V[Bip]Y(Carboxymethyl)[NMeA][dL][Dab][Cha]V[dS]C[Dab][Aun]-OH; thioether N-14) | 26.6 nM
7 | CC(C)C[C@H]1NC(=O)[C@H](C)N(C)C(=O)[C@H](CCCNC(N)=O)NC(=O)[C@H](Cc2ccc(-c3ccccc3)cc2)NC(=O)[C@H](Cc2ccc(C(=O)O)cc2)NC(=O)[C@H](Cc2cccc(C(F)(F)F)c2)NC(=O)[C@H](CC(=O)O)NC(=O)[C@H](Cc2ccc(OCC(=O)O)cc2)NC(=O)[C@H](Cc2ccc(C(=O)O)cc2)NC(=O)CSC[C@@H](C(=O)N[C@@H](CCN)C(=O)NCCCCCCCCCCCCC(=O)O)NC(=O)[C@H](CCC(=O)O)NC(=O)[C@H](C(C)C)NC(=O)[C@H](CC2CCCCC2)NC(=O)[C@H](CCN)NC1=O [Example 1147] ({CH2CO}-[Phe(4-COOH)]Y(Carboxymethyl)D[Phe(3-CF3)][Phe(4-COOH)][Bip][Cit][NMeA][dL][Dab][Cha]VEC[Dab]-{NH(CH2)12COOH}; thioether N-14) | 13.2 nM
8 | Cc1cccc(C[C@@H]2NC(=O)[C@H](CC(=O)O)NC(=O)[C@H](Cc3ccc(OCC(=O)O)cc3)NC(=O)[C@H]([C@@H](C)O)NC(=O)CSC[C@@H](C(=O)N[C@@H](CCN)C(=O)NCCCCCCCCCCC(=O)O)NC(=O)[C@H]([C@@H](C)O)NC(=O)[C@H](C(C)C)NC(=O)[C@H](CC3CCCCC3)NC(=O)[C@H](CCN)NC(=O)[C@@H](CC(C)C)NC(=O)[C@H](C)N(C)C(=O)[C@H](Cc3ccc(OCC(=O)O)cc3)NC(=O)[C@H](Cc3ccc(-c4cc(F)c(F)c(F)c4)cc3)NC(=O)[C@H](Cc3ccc(C(=O)O)cc3)NC2=O)c1 [Example 1236] ({CH2CO}-TY(Carboxymethyl)D[Phe(3-Me)][Phe(4-COOH)][X5]Y(Carboxymethyl)[NMeA][dL][Dab][Cha]VTC[Dab][Aun]-OH; thioether N-14) | 54.5 nM
9 | CC(C)C[C@@H]1NC(=O)[C@H](Cc2c[nH]c3ccccc23)NC(=O)[C@H](CC(=O)O)NC(=O)[C@H](Cc2ccc(C(=O)O)cc2)NC(=O)[C@H](Cc2ccc(OCC(=O)O)cc2)NC(=O)CSC[C@@H](C(=O)NCC(=O)N[C@@H](CCC(=O)O)C(=O)NCCCCCCCCCCC(=O)O)NC(=O)[C@H](CO)NC(=O)[C@H](C(C)C)NC(=O)[C@H](CC2CCCCC2)NC(=O)[C@H](CCN)NC(=O)[C@@H](CC(C)C)NC(=O)[C@H](C)N(C)C(=O)[C@H](C(C)C)NC(=O)[C@H](Cc2ccc(-c3ccccc3)cc2)NC1=O [Example 1040] ({CH2CO}-Y(Carboxymethyl)[Phe(4-COOH)]DWL[Bip]V[NMeA][dL][Dab][Cha]VSCGE[Aun]-OH; thioether N-14) | 14 nM
10 | CC(C)C[C@H]1NC(=O)[C@H](C)N(C)C(=O)[C@H](CCCNC(N)=O)NC(=O)[C@H](Cc2ccc(-c3ccccc3)cc2)NC(=O)[C@H](Cc2ccc(C(=O)O)cc2)NC(=O)[C@H](Cc2cccc(C(F)(F)F)c2)NC(=O)[C@H](CC(=O)O)NC(=O)[C@H](Cc2ccc(OCC(=O)O)cc2)NC(=O)[C@H](Cc2ccc(C(=O)O)cc2)NC(=O)CSC[C@@H](C(=O)N[C@@H](CCN)C(=O)NCCOCCOCC(=O)N[C@@H](CCC(=O)NCCOCCOCC(=O)NCCCCCCCCCCCCC(=O)O)C(=O)O)NC(=O)[C@H](CCC(=O)O)NC(=O)[C@H](C(C)C)NC(=O)[C@H](CC2CCCCC2)NC(=O)[C@H](CCN)NC1=O [Example 1158] ({CH2CO}-[Phe(4-COOH)]Y(Carboxymethyl)D[Phe(3-CF3)][Phe(4-COOH)][Bip][Cit][NMeA][dL][Dab][Cha]VEC[Dab][AEEA][γGlu][AEEA]-{NH(CH2)12COOH}; thioether N-14) | 50.3 nM
11 | CC(C)C[C@H]1NC(=O)[C@H](C)N(C)C(=O)[C@H](C(C)C)NC(=O)[C@H](Cc2ccc(-c3ccccc3)cc2)NC(=O)[C@H](C(C)C)NC(=O)[C@H](Cc2c[nH]c3ccccc23)NC(=O)[C@H](CC(=O)O)NC(=O)[C@H](Cc2ccncc2)NC(=O)[C@H](Cc2ccc(OCC(=O)O)cc2)NC(=O)CSC[C@@H](C(=O)N[C@@H](CCCCN)C(=O)NCCCCCCCCCCC(=O)O)NC(=O)C[C@H](CO)NC(=O)[C@H](C(C)C)NC(=O)[C@H](CC2CCCCC2)NC(=O)[C@H](CCN)NC1=O [Example 2116] ({CH2CO}-Y(Carboxymethyl)[4Pal]DWV[Bip]V[NMeA][dL][Dab][Cha]V[β3hS]CK[Aun]-OH; thioether N-14) | 63.7 nM
12 | CCC(C)[C@@H]1NC(=O)[C@H](Cc2ccc(-c3ccccc3)cc2)NC(=O)[C@H](Cc2ccc(OCC(=O)O)cc2)NC(=O)[C@H](Cc2cccc(C)c2)NC(=O)[C@H](CC(=O)O)NC(=O)[C@H](Cc2ccc(C(=O)O)cc2)NC(=O)[C@H](Cc2ccncc2)NC(=O)CSC[C@@H](C(=O)N[C@@H](CCN)C(=O)NCCOCCOCC(=O)NCCCCCCCCCCC(=O)O)NC(=O)[C@H](CCCN)NC(=O)[C@H](C(C)C)NC(=O)[C@H](CC2CCCCC2)NC(=O)[C@H](CCN)NC(=O)[C@@H](CC(C)C)NC(=O)[C@H](C)N(C)C1=O (stereo partly drawn) [Example 1407] ({CH2CO}-[4Pal][Phe(4-COOH)]D[Phe(3-Me)]Y(Carboxymethyl)[Bip][Ile(3ξ)][NMeA][dL][Dab][Cha]V[Orn]C[Dab][AEEA][Aun]-OH; thioether N-14) | 89.9 nM
